In ChEMBL document CHEMBL3227967, “Quantitative structure-activity relationships in 1-aryl-2-(alkylamino)ethanol antimalarials” (J Med Chem, 1979):

Test system: Plasmodium berghei
Assay: Antimalarial activity against Plasmodium berghei
Format: functional

| Structure (SMILES) | log(1/C) |
| --- | --- |
| CCCCCCN(CCCCCC)CC(O)c1cc(-c2ccc(Cl)cc2)nc2cc(OC)c(Cl)cc12 (stereo not drawn) | 2.8 |
| CCCCN(CCCC)CC(O)c1cc(Oc2cccc(C(C)(F)F)c2)nc2c(Cl)cc(Cl)cc12 (stereo not drawn) | 2.76 |
| CCCCCCN(CCCCCC)CC(O)c1cccc2c1cc(Br)c1ccccc12 (stereo not drawn) | 2.77 |
| CCCCN(CCCC)CC(O)c1c(Br)c2ccccc2c2cc(Br)ccc12 (stereo not drawn) | 3.23 |
| CCCCN(CCCC)CC(O)c1ccnc2cc(C(F)(F)F)ccc12 (stereo not drawn) | 2.51 |
| OC(CC1CCCN1)c1cc(-c2ccccc2)nc2ccccc12 (stereo not drawn) | 2.26 |
| CCCN(CCC)CC(O)c1cc2cc(C(F)(F)F)cc(C(F)(F)F)c2c2ccccc12 (stereo not drawn) | 4.31 |
| CCCCCCCN(CCCCCCC)CC(O)c1cc(Cl)cc2ccc(-c3ccc(Cl)cc3)nc12 (stereo not drawn) | 2.34 |
| CCCCN(CCCC)CC(O)c1cc(-c2ccc(Br)cc2)nc(-c2ccc(Br)cc2)c1 (stereo not drawn) | 3.31 |
| CCCCCCCN(CCCCCCC)CC(O)c1cc2c(Br)cccc2c2cc(Br)ccc12 (stereo not drawn) | 3.33 |
| OC(CC1CCCCN1)c1cc2c(Cl)c(Cl)ccc2c2cc(C(F)(F)F)ccc12 (stereo not drawn) | 4.45 |
| CCCCCCCN(CCCCCCC)CC(O)c1cccc2c1ccc1ccccc12 (stereo not drawn) | 2.58 |
| CCCCN(CCCC)CC(O)c1c(C)c2ccccc2c2ccccc12 (stereo not drawn) | 2.79 |
| CCCCCCN(CCCCCC)CC(O)c1cc(-c2ccc(Cl)cc2)nc2c(Cl)cc(Cl)cc12 (stereo not drawn) | 3.37 |
| CCCCN(CCCC)CC(O)c1cc2ccncc2c2c(Cl)cc(Cl)cc12 (stereo not drawn) | 2.57 |
| CCN(CC)CC(O)c1cc2c(Cl)cc(Cl)cc2c2cc(Cl)ccc12 (stereo not drawn) | 3.9 |
| CCCCCCN(CCCCCC)CC(O)c1cc(-c2ccc(Cl)c(Cl)c2)nc2ccc(OC)cc12 (stereo not drawn) | 3.35 |
| CCCCN(CCCC)CC(O)c1cc(-c2ccc(Cl)cc2)nc2cc(OC)c(Cl)cc12 (stereo not drawn) | 2.76 |
| CCCCCCN(CCCCCC)CC(O)c1cc(-c2ccc(OC)cc2)nc2c(Cl)cc(OC)cc12 (stereo not drawn) | 3.15 |
| OC(CC1CCCCN1)c1cc(Oc2ccc(Cl)cc2)nc2c(Cl)cc(Cl)cc12 (stereo not drawn) | 4.16 |
| CCCCN(CCCC)CC(O)c1cc2ccccc2c2ccsc12 (stereo not drawn) | 2.22 |

| Structure (SMILES) | log(1/C) |
| --- | --- |
| CCN(CC)CC(O)c1cc(-c2ccc(Cl)c(Cl)c2)nc2cc(OC)ccc12 (stereo not drawn) | 3.32 |
| CCCCN(CCCC)CC(O)c1cc(C(=O)c2ccc(C(F)(F)F)cc2)nc2c(Cl)cc(Cl)cc12 (stereo not drawn) | 4.86 |
| OC(C[N+]12CCC(CC1)CC2)c1cc(-c2ccc(Cl)cc2)nc(-c2ccc(Cl)cc2)c1 (stereo not drawn) | 3.21 |
| CCCCN(CCCC)CC(O)c1cc2c(Cl)c(Cl)ccc2c2cc(Cl)c(Cl)cc12 (stereo not drawn) | 3.34 |
| Cc1ccc2nc(C(F)(F)F)cc(C(O)CC3CCCCN3)c2c1 (stereo not drawn) | 2.84 |
| CN(Cc1ccccc1)CC(O)c1cc(-c2cccs2)nc2cccc(Br)c12 (stereo not drawn) | 2.26 |
| OC(CC1CCCCN1)c1cc2ccccc2c2cc(C(F)(F)F)ccc12 (stereo not drawn) | 3.37 |
| CCC(C)NCC(O)c1cc(-c2ccc(C(F)(F)F)cc2)nc(-c2ccc(C(F)(F)F)cc2)c1 (stereo not drawn) | 4.15 |
| CCCCCCCN(CCCCCCC)CC(O)c1cc2ccccc2c2cc(Cl)ccc12 (stereo not drawn) | 2.59 |
| CCCN(CCC)CC(O)c1cc2ccc(C(F)(F)F)cc2c2ccsc12 (stereo not drawn) | 2.82 |
| CCCCCN(CCCCC)CC(O)c1cc(-c2ccccc2)nc2ccccc12 (stereo not drawn) | 2.57 |
| CCCN(CCC)CC(O)c1cc2cc(Br)ccc2c2cc(Br)ccc12 (stereo not drawn) | 4.27 |
| CCCCCCN(CCCCCC)CC(O)c1cccc2ccc3ccccc3c12 (stereo not drawn) | 2.2 |
| CCCCN(CCCC)CC(O)c1cc(/C=C/c2ccc(C(F)(F)F)cc2)nc(-c2ccc(C(F)(F)F)cc2)c1 (stereo not drawn) | 4.26 |
| CCCCN(CCCC)CC(O)c1cc(-c2ccccc2)nc2ccccc12 (stereo not drawn) | 2.54 |
| CCCCN(CCCC)CC(O)c1cc(Oc2ccc(Cl)c(Cl)c2)cc2c(Cl)cc(Cl)cc12 (stereo not drawn) | 2.49 |
| CCCCCCCCCN(CCCCCCCCC)CC(O)c1c2ccccc2cc2ccccc12 (stereo not drawn) | 3.24 |
| CCCCN(CCCC)CC(O)c1cc(Oc2ccc(Cl)cc2)c(Br)c2cc(Cl)ccc12 (stereo not drawn) | 2.62 |
| OC(CC1CCCCN1)c1cc2cc(Cl)ccc2c2cc(C(F)(F)F)ccc12 (stereo not drawn) | 4.07 |
| CCCCCCN(CCCCCC)CC(O)c1cc(-c2ccc(OC)cc2)nc2cc(Cl)c(OC)cc12 (stereo not drawn) | 3.38 |
| CCCCN(CCCC)CC(O)c1cc2cc(Br)ccc2c2cc(SC)ccc12 (stereo not drawn) | 3.04 |

| Structure (SMILES) | log(1/C) |
| --- | --- |
| CCCCN(CCCC)CC(O)c1cc2ccc(C(F)(F)F)cc2c2cc(Cl)sc12 (stereo not drawn) | 3.84 |
| OC(CC1CCCCN1)c1cc(-c2ccccc2)nc2c(Cl)cc(Cl)cc12 (stereo not drawn) | 3.9 |
| CCCCN(CCCC)CC(O)c1c2ccccc2c(Br)c2ccccc12 (stereo not drawn) | 2.88 |
| CCCCN(CCCC)CC(O)c1cc(C(=O)c2cccc(C(F)(F)F)c2)nc2c(C(F)(F)F)cc(Cl)cc12 (stereo not drawn) | 4.52 |
| CCCCN(CCCC)CC(O)c1cc(-c2ccc(C(F)(F)F)cc2)nc(C(F)(F)F)c1 (stereo not drawn) | 4.13 |
| OC(CC1CCCCN1)c1cc2cc(C(F)(F)F)cc(C(F)(F)F)c2c2ccccc12 (stereo not drawn) | 4.19 |
| Cc1ccc2nc(-c3ccccc3)cc(C(O)CC3CCCCN3)c2c1 (stereo not drawn) | 2.47 |
| CCCN(CCC)CC(O)c1cc(-c2ccc(Cl)cc2)nc(-c2ccc(Cl)cc2)c1 (stereo not drawn) | 3.3 |
| CCCCN(CCCC)CC(O)c1cc(-c2ccc(Cl)cc2)nc2c(C(F)(F)F)cccc12 (stereo not drawn) | 3.69 |
| OC(CC1CCCCN1)c1ccnc2c(C(F)(F)F)cccc12 (stereo not drawn) | 2.75 |
| CCCCN(CCCC)CC(O)c1cc(/C=C/c2ccc(Cl)cc2)cc(C(F)(F)F)c1 (stereo not drawn) | 4.37 |
| CCCCN(CCCC)CC(O)c1cc(-c2ccccc2)nc2ccc(OC)cc12 (stereo not drawn) | 2.89 |
| CCCCCCN(CCCCCC)CC(O)c1cccc2c1ccc1ccccc12 (stereo not drawn) | 2.03 |
| CCCCN(CCCC)CCC(O)c1cc(-c2ccc(Cl)c(Cl)c2)nc2c(Cl)cc(Cl)cc12 (stereo not drawn) | 4.67 |
| COc1ccc(-c2cc(C(O)CC3CCCCN3)c3cccc(C(F)(F)F)c3n2)cc1 (stereo not drawn) | 3.88 |
| OC(CN1CCCCCC1)c1cc(-c2cccs2)nc2cccc(Br)c12 (stereo not drawn) | 2.89 |
| CCCCCCCN(CCCCCCC)CC(O)c1cc2ccsc2c2cc(Br)ccc12 (stereo not drawn) | 2.68 |
| CN1CCCCC1CC(O)c1cc2ccccc2c2cc(Br)ccc12 (stereo not drawn) | 3.44 |
| CCCCN(CCCC)CC(O)c1cc(-c2ccc(Cl)cc2)nc2cc(Cl)c(OC)cc12 (stereo not drawn) | 3.87 |
| C=C[C@H]1CN2CC[C@H]1C[C@H]2[C@H](O)c1ccnc2ccc(OC)cc12.O=C(O)c1ccccc1 | 1.98 |
| OC(CC1CCCCN1)c1cc(-c2ccccc2)nc2c(Cl)cccc12 (stereo not drawn) | 2.69 |
